From patent US8334235B2, “Thiadiazolyloxyphenylamidines and use thereof as fungicides” (Bayer Cropscience AG, priority 2008, dated 2012)

Assays:
Format in all cases: in vivo
Sphaerotheca fuliginea = experiment: Sphaerotheca test (cucumber)/protective; settings: Podosphaera fuliginea, 168 h, 500 ppm active substance, protective, evaluation 7 days after inoculation, read-out: degree of effectiveness
Method: • Solvent: 49 parts by weight of N,N-dimethylformamide • Emulsifier: 1 part by weight of alkylaryl polyglycol ether (polyoxyethylene (16) tristearylphenyl ether) To prepare a suitable active substance composition, 1 part by weight of active substance is mixed with the given amounts of solvents and emulsifier and the concentrate is diluted to the desired concentration using water. For the testing of protective effectiveness, young cucumber plants are sprayed with the active substance composition in the application rate given. One day after treatment, the plants are inoculated with a suspension of spores of Sphaerotheca fuliginea. The plants are then placed in a greenhouse at 70% relative humidity and a temperature of 23° C. Evaluation is carried out 7 days after the inoculation. In this connection, 0% means a degree of effectiveness corresponding to that of the control, while a degree of effectiveness of 100% means that no infestation is observed.

Puccinia triticina [1] = experiment: Puccinia triticina test (wheat)/protective; settings: 192 h, 500 ppm active substance, protective, evaluation 8 days after inoculation, read-out: degree of effectiveness
Method: (§1) • Solvent: 50 parts by weight of N,N-dimethylacetamide • Emulsifier: 1 part by weight of alkylaryl polyglycol ether (polyoxyethylene (16) tristearylphenyl ether)
(§2) To prepare a suitable active substance composition, 1 part by weight of active substance is mixed with the given amounts of solvent and emulsifier and the concentrate is diluted to the desired concentration using water.
For the testing of protective effectiveness, young plants are sprayed with the active substance composition in the application rate given. After the spray coating has been dried on, the plants are sprayed with a suspension of spores of Puccinia triticina. The plants remain in an incubation chamber at 20° C. and 100% relative humidity for 48 hours. The plants are placed in a greenhouse at a temperature of approximately 20° C. and a relative humidity of approximately 80%.
(§3) Evaluation is carried out 8 days after the inoculation. In this connection, 0% means a degree of effectiveness corresponding to that of the control, while a degree of effectiveness of 100% means that no infestation is observed.

Puccinia triticina [2] = experiment: Puccinia triticina test (wheat)/curative; settings: 192 h, 500 ppm active substance, curative, evaluation 8 days after inoculation, read-out: degree of effectiveness
Method: as §1, §2
For the testing of curative effectiveness, young plants are sprayed with a suspension of spores of Puccinia triticina. The plants remain in an incubation chamber at 20° C. and 100% relative humidity for 48 hours and are then sprayed with the active substance composition in the application rate given. The plants are placed in a greenhouse at a temperature of approximately 20° C. and a relative humidity of approximately 80%.
as §3

Alternaria solani = experiment: Alternaria test (tomato)/protective; settings: 72 h, 100 ppm active substance, protective, evaluation 3 days after inoculation, read-out: degree of effectiveness
Method: • Solvents: 24.5 parts by weight of acetone • 24.5 parts by weight of dimethylacetamide • Emulsifier: 1 part by weight of alkylaryl polyglycol ether (polyoxyethylene (16) tristearylphenyl ether)
To prepare a suitable active substance composition, 1 part by weight of substance is mixed with the given amounts of solvents and emulsifier and the concentrate is diluted to the desired concentration using water.
For the testing of protective effectiveness, young plants are sprayed with the active substance composition in the application rate given. After the spray coating has been dried on, the plants are inoculated with an aqueous suspension of spores of Alternaria solani. The plants are then placed in an incubation chamber at approximately 20° C. and 100% relative humidity.
Evaluation is carried out 3 days after the inoculation. In this connection, 0% means a degree of effectiveness corresponding to that of the control, while a degree of effectiveness of 100% means that no infestation is observed.

Compound | pest or weed control at 500 ppm (Sphaerotheca fuliginea) | pest or weed control at 500 ppm (Puccinia triticina [1]) | pest or weed control at 500 ppm (Puccinia triticina [2]) | pest or weed control at 100 ppm (Alternaria solani)
CCN(C)C=Nc1cc(C)c(Oc2nc([C@@H]3C[C@H]3c3ccccc3)ns2)cc1Cl (relative stereo) [Compound 29, rel-N′-[2-chloro-5-methyl-4-({3-[(1R,2R)-2-phenylcyclopropyl]-1,2,4-thiadiazol-5-yl}oxy)phenyl]-N-ethyl-N-methylimidoformamide] | ≥ 70% | ≥ 70% | ≥ 70% | 
Cc1cc(N=CN(C)C(C)C)c(Cl)cc1Oc1nc([C@@H]2C[C@H]2c2ccccc2)ns1 (relative stereo) [Compound 31, rel-N′-[2-chloro-5-methyl-4-({3-[(1R,2R)-2-phenylcyclopropyl]-1,2,4-thiadiazol-5-yl}oxy)phenyl]-N-methyl-N-(propan-2-yl)imidoformamide] | ≥ 70% | ≥ 70% | ≥ 70% | 
Cc1cc(N=CN(C)C(C)C)c(Cl)cc1Oc1nc(C2(Cl)CC2)ns1 [Compound 4, N′-(2-chloro-4-{[3-(1-chlorocyclopropyl)-1,2,4-thiadiazol-5-yl]oxy}-5-methylphenyl)-N-methyl-N-propan-2-ylimidoformamide] | ≥ 70% | ≥ 70% | ≥ 70% | 
Cc1cc(/N=C/N2CCCCC2)c(Cl)cc1Oc1nc(C2(Cl)CC2)ns1 [Compound 5, 2-chloro-4-{[3-(1-chlorocyclopropyl)-1,2,4-thiadiazol-5-yl]oxy}-5-methyl-N-[(E)-piperidin-1-ylmethylidene]aniline] | ≥ 70% | ≥ 70% | ≥ 70% | 
Cc1cc(/N=C/N2CCCCC2)c(Cl)cc1Oc1nc(C(C)c2ccc(Cl)cc2)ns1 (centres unmarked) [Compound 7, 2-chloro-4-({3-[1-(4-chlorophenyl)ethyl]-1,2,4-thiadiazol-5-yl}oxy)-5-methyl-N-[(E)-piperidin-1-ylmethylidene]aniline] | ≥ 70% |  |  | 
CCN(C)/C=N/c1cc(C)c(Oc2nc(CCc3ccc(Cl)cc3)ns2)cc1Cl [Compound 9, N′-[2-chloro-4-({3-[2-(4-chlorophenyl)ethyl]-1,2,4-thiadiazol-5-yl}oxy)-5-methylphenyl]-N-ethyl-N-methylimidoformamide] | ≥ 70% | ≥ 70% | ≥ 70% | 
CCN(C)/C=N/c1cc(C)c(Oc2nc(C(C)(C)c3ccc(Cl)cc3)ns2)cc1Cl [Compound 11, N′-[2-chloro-4-({3-[2-(4-chlorophenyl)propan-2-yl]-1,2,4-thiadiazol-5-yl}oxy)-5-methylphenyl]-N-ethyl-N-methylimidoformamide] | ≥ 70% | ≥ 70% | ≥ 70% | ≥ 70%
Cc1cc(/N=C\N2CCCCC2)c(Cl)cc1Oc1nc(C(C)(C)c2ccc(Cl)cc2)ns1 [Compound 12, 2-chloro-4-({3-[2-(4-chlorophenyl)propan-2-yl]-1,2,4-thiadiazol-5-yl}oxy)-5-methyl-N-[(Z)-piperidin-1-ylmethylidene]aniline] | ≥ 70% |  |  | ≥ 70%
Cc1cc(/N=C\N2CCCCC2)c(Cl)cc1Oc1nc(/C=C/c2ccc(F)cc2)ns1 [Compound 16, 2-chloro-4-({3-[(E)-2-(4-fluorophenyl)ethenyl]-1,2,4-thiadiazol-5-yl}oxy)-5-methyl-N-[(Z)-piperidin-1-ylmethylidene]aniline] | ≥ 70% |  |  | 
CCN(C)/C=N/c1cc(C)c(Oc2nc(CCl)ns2)cc1Cl [Compound 19, N′-(2-chloro-4-{[3-(chloromethyl)-1,2,4-thiadiazol-5-yl]oxy}-5-methylphenyl)-N-ethyl-N-methylimidoformamide] |  |  | ≥ 70% | 
Cc1cc(N=CN(C)C(C)C)c(Cl)cc1Oc1nc(C2(c3ccc(Cl)cc3)CC2)ns1 [Compound 20, N′-[2-chloro-4-({3-[1-(4-chlorophenyl)cyclopropyl]-1,2,4-thiadiazol-5-yl}oxy)-5-methylphenyl]-N-methyl-N-(propan-2-yl)imidoformamide] | ≥ 70% | ≥ 70% | ≥ 70% | 
Cc1cc(/N=C\N2CCCCC2)c(Cl)cc1Oc1nc(C2(c3ccc(Cl)cc3)CC2)ns1 [Compound 21, 2-chloro-4-({3-[1-(4-chlorophenyl)cyclopropyl]-1,2,4-thiadiazol-5-yl}oxy)-5-methyl-N-[(Z)-piperidin-1-ylmethylidene]aniline] | ≥ 70% |  |  | 
CCN(C)/C=N/c1cc(C)c(Oc2nc(COc3ccc(Cl)cc3)ns2)cc1Cl [Compound 22, N′-[2-chloro-4-({3-[(4-chlorophenoxy)methyl]-1,2,4-thiadiazol-5-yl}oxy)-5-methylphenyl]-N-ethyl-N-methylimidoformamide] | ≥ 70% |  |  | 
C=CCN(C)C=Nc1cc(C)c(Oc2nc(C(C)(C)C)ns2)cc1Cl [Compound 25, N′-{4-[(3-(tert-butyl)-1,2,4-thiadiazol-5-yl)oxy]-2-chloro-5-methylphenyl}-N-methyl-N-(prop-2-en-1-yl)imidoformamide] | ≥ 70% | ≥ 70% | ≥ 70% | 
Cc1cc(N=CN(C)CC2CC2)c(Cl)cc1Oc1nc(C(C)(C)C)ns1 [Compound 26, N′-{4-[(3-(tert-butyl)-1,2,4-thiadiazol-5-yl)oxy]-2-chloro-5-methylphenyl}-N-(cyclopropylmethyl)-N-methylimidoformamide] | ≥ 70% | ≥ 70% | ≥ 70% | 
CCN(C)/C=N/c1cc(C)c(Oc2nc(C(C)(C)Cc3ccccc3)ns2)cc1Cl [Compound 28, N′-(2-chloro-5-methyl-4-{[3-(2-methyl-1-phenylpropan-2-yl)-1,2,4-thiadiazol-5-yl]oxy}phenyl)-N-ethyl-N-methylimidoformamide] | ≥ 70% | ≥ 70% |  | ≥ 70%
CCN(C)C=Nc1cc(C)c(Oc2nc(Cc3cccc(C(F)(F)F)c3)ns2)cc1Cl [Compound 34, N′-[2-chloro-5-methyl-4-({3-[3-(trifluoromethyl)benzyl]-1,2,4-thiadiazol-5-yl}oxy)phenyl]-N-ethyl-N-methylimidoformamide] | ≥ 70% | ≥ 70% | ≥ 70% | 
CCN(C)/C=N/c1cc(C)c(Oc2nc(COc3cccc(Cl)c3)ns2)cc1Cl [Compound 35, N′-[2-chloro-4-({3-[(3-chlorophenoxy)methyl]-1,2,4-thiadiazol-5-yl}oxy)-5-methylphenyl]-N-ethyl-N-methylimidoformamide] | ≥ 70% | ≥ 70% | ≥ 70% | 
CCN(C)/C=N/c1cc(C)c(Oc2nc(COc3ccccc3Cl)ns2)cc1Cl [Compound 36, N′-[2-chloro-4-({3-[(2-chlorophenoxy)methyl]-1,2,4-thiadiazol-5-yl}oxy)-5-methylphenyl]-N-ethyl-N-methylimidoformamide] | ≥ 70% |  | ≥ 70% | 
CCN(C)/C=N/c1cc(C)c(Oc2nc(COc3ccccc3)ns2)cc1Cl [Compound 37, N′-(2-chloro-5-methyl-4-{[3-(phenoxymethyl)-1,2,4-thiadiazol-5-yl]oxy}phenyl)-N-ethyl-N-methylimidoformamide] | ≥ 70% |  |  | 
